Assay results taken from ChEMBL document CHEMBL1128330, “Anti-human immunodeficiency virus and anti-hepatitis-B virus activities and toxicities of the enantiomers of 2'-deoxy-3'-oxa-4'-thiocytidine and their 5-fluoro analogues in vitro” (J Med Chem, 1995).

Assays:
Conditions in all cases: Homo sapiens
CCRF-CEM [1] = experiment: Inhibitory concentration against HIV-1 infected CEM cell lines; format: functional, cell-based
CCRF-CEM [2] = experiment: Cytotoxic concentration against HIV-1 infected CEM cell lines; format: functional
[3] = Drug concentration which inhibits 50% of growth of cord blood mononuclear cells (CBMCs); format: functional
H9 [4] = experiment: Cytotoxic concentration against HIV-1 infected H9 cell lines; format: functional
H9 [5] = experiment: Inhibitory concentration against HIV-1 infected H9 cell lines; format: functional, cell-based
Jurkat [6] = experiment: Cytotoxic concentration against HIV-1 infected Jurkat cell lines; format: functional
MT4 [7] = experiment: Cytotoxic concentration against HIV-1 infected MT-4 cell lines; format: functional
U-937 [8] = experiment: Cytotoxic concentration against HIV-1 infected U937 cell lines; format: functional
U-937 [9] = experiment: Inhibitory concentration against HIV-1 infected U937 cell lines; format: functional, cell-based
Jurkat [10] = experiment: Inhibitory concentration against HIV-1 infected Jurkat cell lines; format: functional, cell-based
MT4 [11] = experiment: Inhibitory concentration against HIV-1 infected MT-4 cell lines; format: functional, cell-based

## Cc1cn([C@H]2C[C@H](N=[N+]=[N-])[C@@H](CO)O2)c(=O)[nH]c1=O [ZIDOVUDINE]
CCRF-CEM [1]
  IC50: 0.01 µM
CCRF-CEM [2]
  CC50: 500 µM
[3]
  CC50: 45 µM
H9 [4]
  CC50: 200 µM
H9 [5]
  IC50: 0.07 µM
Jurkat [6]
  CC50: > 500 µM
MT4 [7]
  CC50: 110 µM
U-937 [8]
  CC50: 110 µM
U-937 [9]
  IC50: 0.04 µM
Jurkat [10]
  IC50: 0.01 µM
MT4 [11]
  IC50: 0.005 µM
